The values below come from patent US10214519B2, “Phosphatidylinositol 3-kinase inhibitors” (Gilead Sciences, Inc., priority 2016, dated 2019).

A word on the IC50: it is the concentration that inhibits the measured activity by half. A lower IC50 goes with higher potency.

The target in the assay is PI3Kβ (Homo sapiens (Human), UniProt P42338). Briefly: PI3K isoform TR-FRET enzymatic assay (PI3Kβ). The class given is biochemical. Conditions: 2× Km ATP, 30 minutes at 25° C. In outline:
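IC50 came from four-parameter dose-response fits, normalized between DMSO and 1 μM wortmannin controls. The read-out was TR-FRET (615/665 nm) of PIP3 displacing fluorescent PIP3 from Europium GRP-1 after 10 mM EDTA termination. Compounds were incubated with purified heterodimeric PI3Kβ for 30 min at 25° C.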
(In general: Time-resolved FRET reads energy transfer from a long-lived donor to a nearby acceptor.)

PI3Kβ, sequence (P42338 whole entry, canonical isoform): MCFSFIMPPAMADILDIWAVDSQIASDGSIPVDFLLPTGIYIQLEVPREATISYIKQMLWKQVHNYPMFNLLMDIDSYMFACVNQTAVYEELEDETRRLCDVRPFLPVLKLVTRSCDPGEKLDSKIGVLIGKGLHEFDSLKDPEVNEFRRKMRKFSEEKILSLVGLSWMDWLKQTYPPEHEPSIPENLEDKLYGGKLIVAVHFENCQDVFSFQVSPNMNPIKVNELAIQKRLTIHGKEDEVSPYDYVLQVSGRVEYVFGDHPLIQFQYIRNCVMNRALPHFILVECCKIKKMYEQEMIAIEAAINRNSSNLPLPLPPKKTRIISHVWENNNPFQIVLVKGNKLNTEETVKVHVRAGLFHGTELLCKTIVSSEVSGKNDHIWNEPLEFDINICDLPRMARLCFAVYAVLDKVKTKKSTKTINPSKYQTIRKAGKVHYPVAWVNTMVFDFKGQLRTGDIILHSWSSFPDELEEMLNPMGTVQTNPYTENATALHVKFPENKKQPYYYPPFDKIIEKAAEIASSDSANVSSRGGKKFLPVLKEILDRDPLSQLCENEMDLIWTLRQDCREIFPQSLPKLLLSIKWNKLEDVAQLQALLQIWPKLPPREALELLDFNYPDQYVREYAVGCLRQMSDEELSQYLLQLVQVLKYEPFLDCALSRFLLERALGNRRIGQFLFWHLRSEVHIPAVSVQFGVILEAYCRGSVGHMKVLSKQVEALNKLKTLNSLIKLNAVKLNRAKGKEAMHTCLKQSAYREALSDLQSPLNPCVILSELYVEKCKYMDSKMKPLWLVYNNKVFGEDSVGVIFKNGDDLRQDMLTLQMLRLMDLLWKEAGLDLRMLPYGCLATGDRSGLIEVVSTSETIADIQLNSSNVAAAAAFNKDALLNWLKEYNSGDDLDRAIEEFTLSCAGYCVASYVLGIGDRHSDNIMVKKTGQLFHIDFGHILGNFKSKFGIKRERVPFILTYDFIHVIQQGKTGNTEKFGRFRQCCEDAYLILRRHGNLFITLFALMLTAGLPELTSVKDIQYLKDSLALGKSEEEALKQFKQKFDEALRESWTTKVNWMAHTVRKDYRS
PI3Kβ, sequence (P27986 whole entry partner, canonical isoform): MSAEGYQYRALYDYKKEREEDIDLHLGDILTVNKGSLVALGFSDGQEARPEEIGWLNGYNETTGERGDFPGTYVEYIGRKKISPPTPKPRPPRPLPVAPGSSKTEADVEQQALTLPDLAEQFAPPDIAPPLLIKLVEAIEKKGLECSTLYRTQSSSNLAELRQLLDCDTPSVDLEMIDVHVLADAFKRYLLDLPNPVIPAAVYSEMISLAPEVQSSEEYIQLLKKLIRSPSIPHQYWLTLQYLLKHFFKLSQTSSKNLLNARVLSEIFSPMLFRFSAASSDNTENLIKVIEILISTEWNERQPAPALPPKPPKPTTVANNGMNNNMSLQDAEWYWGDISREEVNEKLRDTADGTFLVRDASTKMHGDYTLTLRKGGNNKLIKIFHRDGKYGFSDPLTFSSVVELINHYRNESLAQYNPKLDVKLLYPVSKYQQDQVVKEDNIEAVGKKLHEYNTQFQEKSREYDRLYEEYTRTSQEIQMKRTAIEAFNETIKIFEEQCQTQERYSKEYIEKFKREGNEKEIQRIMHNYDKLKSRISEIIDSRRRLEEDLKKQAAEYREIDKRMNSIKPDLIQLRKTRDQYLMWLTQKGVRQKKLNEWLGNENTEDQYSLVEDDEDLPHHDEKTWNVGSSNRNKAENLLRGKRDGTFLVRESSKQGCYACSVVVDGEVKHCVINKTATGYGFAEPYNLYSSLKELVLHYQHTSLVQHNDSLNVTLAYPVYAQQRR

`CCCc1nc2c(-c3nnc[nH]3)cc(N3CCOCC3)cc2n1-c1ccnc2c(F)cccc12` (atropisomer, axis not shown) [Compound 354, 4-[3-(8-fluoroquinolin-4-yl)-2-propyl-7-(4H-1,2,4-triazol-3-yl)benzimidazol-5-yl]morpholine]: it took 0.008 µM to reach half-maximal inhibition (IC50).

For the molecule `CCCc1nc2c(-c3nnc[nH]3)cc(N3CCOCC3)cc2n1-c1ccnc2c(Cl)cccc12` [Compound 1, 4-(1-(8-chloroquinolin-4-yl)-2-propyl-4-(4H-1,2,4-triazol-3-yl)-1H-benzo[d]imidazol-6-yl)morpholine 2,2,2-trifluoroacetate], inhibition was half-maximal at 0.004 µM (IC50).

Take `Cc1nc2c(-c3cnc[nH]3)cc(N3CCOCC3)cc2n1-c1ccnc2c(F)cccc12` [Example 208, 4-[3-(8-fluoroquinolin-4-yl)-7-(1H-imidazol-5-yl)-2-methylbenzimidazol-5-yl]morpholine]: the IC50 was determined as 0.014 µM.

`Cc1nc2c(-c3cnn[nH]3)cc(N3CCOCC3)cc2n1-c1ccnc2c(F)ccc(F)c12` [Example 377, 4-(1-(5,8-difluoroquinolin-4-yl)-2-methyl-4-(1H-1,2,3-triazol-5-yl)-1H-benzo[d]imidazol-6-yl)morpholine] showed an IC50 of 0.035 µM.

Consider `Cc1nc2c(-c3cnc(Cl)[nH]3)cc(N3CCOCC3)cc2n1-c1ccnc2c(F)cccc12` [Example 260, 4-(4-(2-chloro-1H-imidazol-5-yl)-1-(8-fluoroquinolin-4-yl)-2-methyl-1H-benzo[d]imidazol-6-yl)morpholine], for which the IC50 was found to be 0.022 µM.

For `CCc1nc2c(-c3nnc[nH]3)cc(N3CCOCC3)cc2n1-c1c(C)cnc2c(C#N)cccc12` (atropisomer, axis not shown) [Compound 365, 4-(2-ethyl-6-morpholino-4-(4H-1,2,4-triazol-3-yl)-1H-benzo[d]imidazol-1-yl)-3-methylquinoline-8-carbonitrile], 9.1 µM corresponded to half-maximal inhibition (IC50).

In the case of `Cc1cc(-n2c(C)nc3c(-c4nc(C)n[nH]4)cc(N4CCOCC4)cc32)c2ccccc2n1` [Example 73, 4-[2-methyl-3-(2-methylquinolin-4-yl)-7-(3-methyl-1H-1,2,4-triazol-5-yl)benzimidazol-5-yl]morpholine], the IC50 is 0.078 µM.

The molecule `c1ccc2c(-n3cnc4c(-c5nnc[nH]5)cc(N5CCOCC5)cc43)cc(-c3cc[nH]n3)nc2c1` [Example 383, 4-(1-(2-(1H-pyrazol-3-yl)quinolin-4-yl)-4-(4H-1,2,4-triazol-3-yl)-1H-benzo[d]imidazol-6-yl)morpholine] displayed an IC50 of 0.011 µM.

Regarding `Fc1ccc2c(-n3c(C4CC4)nc4c(-c5cnc(Cl)[nH]5)cc(N5CCOCC5)cc43)ccnc2c1Cl` [Example 296, 4-[3-(8-chloro-7-fluoroquinolin-4-yl)-7-(2-chloro-1H-imidazol-5-yl)-2-cyclopropylbenzimidazol-5-yl]morpholine], the IC50 came to 0.017 µM.

`Cc1nc2c(-c3nnc[nH]3)cc(N3CCOCC3)cc2n1-c1cc(-c2cscn2)nc2ccccc12` [Example 103, 4-(2-methyl-1-(2-(thiazol-4-yl)quinolin-4-yl)-4-(4H-1,2,4-triazol-3-yl)-1H-benzo[d]imidazol-6-yl)morpholine] registered a half-inhibitory concentration (IC50) of 0.009 µM.

`Clc1cccc2c(-n3c(-c4cnsc4)nc4c(-c5nnc[nH]5)cc(N5CCOCC5)cc43)ccnc12` [Example 118, 4-[3-(8-chloroquinolin-4-yl)-2-(1,2-thiazol-4-yl)-7-(4H-1,2,4-triazol-3-yl)benzimidazol-5-yl]morpholine] yielded a half-maximal inhibitory concentration (IC50) of 0.052 µM.

Molecule `Cc1cnc2ccccc2c1-n1c(C)nc2c(-c3nnc[nH]3)cc(N3CCOCC3)cc21` [Example 65, 4-[2-methyl-3-(3-methylquinolin-4-yl)-7-(4H-1,2,4-triazol-3-yl)benzimidazol-5-yl]morpholine] showed an IC50 of 0.024 µM.

Take `Cc1nc2c(-c3nccs3)cc(N3CCOCC3)cc2n1-c1ccnc2c(Cl)ccc(F)c12` [Example 240, 4-[3-(8-chloro-5-fluoroquinolin-4-yl)-2-methyl-7-(1,3-thiazol-2-yl)benzimidazol-5-yl]morpholine]: the midpoint of inhibition, the IC50, lay at 0.002 µM.

The molecule `Cc1nnc(-c2cc(N3CCOCC3)cc3c2ncn3-c2ccnc3c(Cl)cccc23)[nH]1` [Example 134, 4-[3-(8-chloroquinolin-4-yl)-7-(5-methyl-4H-1,2,4-triazol-3-yl)benzimidazol-5-yl]morpholine] showed an IC50 of 0.016 µM.

For the molecule `Cc1nc2c(-c3cccnc3)cc(N3CCOCC3)cc2n1-c1ccnc2c(Cl)cccc12` [Example 317, 4-[3-(8-chloroquinolin-4-yl)-2-methyl-7-pyridin-3-ylbenzimidazol-5-yl]morpholine], the IC50 was 0.69 µM.

As for `CC(C)(C)c1nc2c(-c3nnc[nH]3)cc(N3CCOCC3)cc2n1-c1ccnc2c(Cl)cccc12` [Example 20, 4-(2-(tert-butyl)-1-(8-chloroquinolin-4-yl)-4-(4H-1,2,4-triazol-3-yl)-1H-benzo[d]imidazol-6-yl)morpholine], inhibition was half-maximal at 0.12 µM (IC50).

`CCCc1nc2c(-c3cnc(Cl)[nH]3)cc(N3CCOCC3)cc2n1-c1ccnc2c(F)ccc(F)c12` [Example 299, 4-[7-(2-chloro-1H-imidazol-5-yl)-3-(5,8-difluoroquinolin-4-yl)-2-propylbenzimidazol-5-yl]morpholine]: the IC50 came to 0.017 µM.

`Fc1ccc2c(-n3c(CC4CC4)nc4c(-c5nnc[nH]5)cc(N5CCOCC5)cc43)ccnc2c1Cl` [Example 31, 4-(1-(8-chloro-7-fluoroquinolin-4-yl)-2-(cyclopropylmethyl)-4-(4H-1,2,4-triazol-3-yl)-1H-benzo[d]imidazol-6-yl)morpholine] registered an IC50 of 0.009 µM.

The molecule `Cc1nnc(-c2cc(N3CCOCC3)cc3c2nc(-c2ccncc2)n3-c2ccnc3c(Cl)cccc23)[nH]1` [Example 25, 4-(1-(8-chloroquinolin-4-yl)-4-(5-methyl-4H-1,2,4-triazol-3-yl)-2-(pyridin-4-yl)-1H-benzo[d]imidazol-6-yl)morpholine] registered a 50% inhibitory concentration (IC50) of 2.2 µM.

The molecule `Cc1nnc(-c2cc(N3CCOCC3)cc3c2nc(C)n3-c2cc(-c3cscn3)nc3ccccc23)[nH]1` [Example 104, 4-(2-methyl-4-(5-methyl-4H-1,2,4-triazol-3-yl)-1-(2-(thiazol-4-yl)quinolin-4-yl)-1H-benzo[d]imidazol-6-yl)morpholine] returned an IC50 of 0.084 µM.

As to `Cc1nc2c(-c3nnc[nH]3)cc(N3CCOCC3)cc2n1-c1ccnc2c(Cl)cccc12` [Example 101, 4-[3-(8-chloroquinolin-4-yl)-2-methyl-7-(4H-1,2,4-triazol-3-yl)benzimidazol-5-yl]morpholine], the IC50 is 0.007 µM.

`CCc1nc2c(-c3nnc[nH]3)cc(N3CCOCC3)cc2n1-c1c(C)cnc2c(C#N)cccc12` [Example 155, 4-(2-ethyl-6-morpholino-4-(4H-1,2,4-triazol-3-yl)-1H-benzo[d]imidazol-1-yl)-3-methylquinoline-8-carbonitrile] gave an IC50 of 0.02 µM.

`Cc1nc2c(-c3cnc(Cl)[nH]3)cc(N3CCOCC3)cc2n1-c1ccnc2ccccc12` [Example 306, 4-[7-(2-chloro-1H-imidazol-5-yl)-2-methyl-3-quinolin-4-ylbenzimidazol-5-yl]morpholine] had an IC50 of 0.37 µM.

Turning to `CCc1c(C)nc2ccccc2c1-n1c(C)nc2c(-c3nnc[nH]3)cc(N3CCOCC3)cc21` [Example 62, 4-[3-(3-ethyl-2-methylquinolin-4-yl)-2-methyl-7-(4H-1,2,4-triazol-3-yl)benzimidazol-5-yl]morpholine], the IC50 came to 0.023 µM.

In turn, `Fc1ccc(F)c2c(-n3c(C4CC4)nc4c(-c5nnc(Cl)[nH]5)cc(N5CCOCC5)cc43)ccnc12` [Example 181, 4-[7-(5-chloro-4H-1,2,4-triazol-3-yl)-2-cyclopropyl-3-(5,8-difluoroquinolin-4-yl)benzimidazol-5-yl]morpholine] had an IC50 of 0.21 µM.

Molecule `Cc1nnc(-c2cc(N3CCOCC3)cc3c2nc(C2CCCO2)n3-c2ccnc3c(Cl)cccc23)[nH]1` (centres unmarked) [Example 16, 4-(1-(8-chloroquinolin-4-yl)-4-(5-methyl-4H-1,2,4-triazol-3-yl)-2-(tetrahydrofuran-2-yl)-1H-benzo[d]imidazol-6-yl)morpholine] displayed an IC50 of 0.053 µM.

Consider `CCc1nc2c(-c3cnn[nH]3)cc(N3CCOCC3)cc2n1-c1ccnc2c(F)ccc(F)c12` [Example 376, 4-(1-(5,8-difluoroquinolin-4-yl)-2-ethyl-4-(1H-1,2,3-triazol-5-yl)-1H-benzo[d]imidazol-6-yl)morpholine], for which the IC50 was 0.07 µM.

As for `Cc1nc2c(-c3cnc(Cl)[nH]3)cc(N3CCOCC3)cc2n1-c1ccnc2c(F)ccc(F)c12` (atropisomer, axis not shown) [Compound 372, 4-(4-(2-chloro-1H-imidazol-5-yl)-1-(5,8-difluoroquinolin-4-yl)-2-methyl-1H-benzo[d]imidazol-6-yl)morpholine], half-maximal inhibition (IC50) required 0.006 µM.

With `CCc1nc2c(-c3cnc(Cl)[nH]3)cc(N3CCOCC3)cc2n1-c1ccnc2c(F)ccc(Cl)c12` [Example 310, 4-[3-(5-chloro-8-fluoroquinolin-4-yl)-7-(2-chloro-1H-imidazol-5-yl)-2-ethylbenzimidazol-5-yl]morpholine], the IC50 turned out to be 0.036 µM.

With `Cc1nnc(-c2cc(N3CCOCC3)cc3c2nc(-c2cccnc2)n3-c2ccnc3c(Cl)cccc23)[nH]1` [Example 23, 4-(1-(8-chloroquinolin-4-yl)-4-(5-methyl-4H-1,2,4-triazol-3-yl)-2-(pyridin-3-yl)-1H-benzo[d]imidazol-6-yl)morpholine], the IC50 was 0.39 µM.

As for `CCCc1nc2c(-c3ccn[nH]3)cc(N3CCOCC3)cc2n1-c1ccnc2c(F)ccc(F)c12` [Example 389], half-maximal inhibition (IC50) required 0.016 µM.

Molecule `Cc1nc2c(-c3nnc[nH]3)cc(N3CCOCC3)cc2n1-c1ccnc2c(Cl)ccc(F)c12` [Example 87, 4-[3-(8-chloro-5-fluoroquinolin-4-yl)-2-methyl-7-(4H-1,2,4-triazol-3-yl)benzimidazol-5-yl]morpholine] returned a 50% inhibitory concentration (IC50) of 0.014 µM.
